Series [1] has as its system calf thymus histones. Put plainly: Inhibition of histone killing of HMEC (flow cytometry, Calcein-AM/PI). Format: cell-based. The note with it: for inhibitory activity on histone toxicity (in words) / % histone killing ± SEM: HMEC; for inhibitory activity on histone toxicity (in words): Table 1 discussion; for % histone killing ± SEM: compounds at 50 μg/ml, calf thymus histones 400 μg/ml; for inhibition of cytotoxic effects of histones for HMEC: histones 400 μg/ml. How it is done: (§1) Different concentrations of calf thymus histones were initially assessed for their toxicity for human umbilical vein endothelial cells (HUVEC) and human microvascular endothelial cells (HMEC). Suspensions of HUVEC/HMEC in Medium199/20% fetal calf serum (FCS) were dispensed into each well of a 96 well plate (1×10^5 cells/well in 50 μl of medium). Calf thymus histones (50 μl/well in M199/20% FCS) were then added to give a final concentration of 100-800 μg/ml followed by 25 μl/well of Calcein-AM in PBS (final concentration 0.04 μM) and 25 propidium iodide (PI) in PBS (final concentration 2.5 μg/ml). Each 96 well plate was incubated at 37° C. for 60 min in a 5% CO2 incubator, placed on ice and the contents of each well analysed by flow cytometry for viable and dead cells. Viable cells were detected as Calcein-AM-bright and PI-dim and dead cells as Calcein-AM-dim and PI-bright. FIG. 1 depicts a typical viability assay comparing HUVEC cultured alone (9.15% dead, 78.6% viable) with HUVEC cultured for 60 min with 200 μg/ml of calf thymus histones (50.4% dead, 35.6% viable). The toxicity of calf thymus histones for HUVEC and HMEC is shown in detail in FIG. 2, with histone toxicity for HUVEC (FIG. 2A) and HMEC (FIG. 2B) being highly concentration dependent, although HMEC were more resistant to histone toxicity than HUVEC. Thus, at 100 μg/ml histones killed 15-20% of HUVEC but had no effect on HMEC viability, whereas at 800 μg/ml histones killed >85% of HUVEC and ˜55% of HMEC (FIG. 1). In subsequent inhibition experiments calf thymus histones were used at 200 μg/ml for HUVEC and 400 μg/ml for HMEC, these concentrations resulting in ˜50% killing of both populations of endothelial cells.
In inhibition experiments the inhibitor (final concentration ranging from 1.6-100 μg/ml) was mixed with calf thymus histones (final concentration 200 or 400 μg/ml) prior to the addition of HUVEC/HMEC, Calcein-AM and PI to each well.
Using HMEC as the endothelial cell target similar inhibitory effects of maltotriose sulfate (FIG. 6) and the other sulfated oligosaccharides (Table 1) on histone toxicity was observed. In fact, a more detailed analysis of the inhibitory activity of a range of polyanions on histone toxicity, using HMEC as the target endothelial cell, is shown in Table 1.

In series [2] the test system is lipopolysaccharide (LPS)-induced mouse model of sepsis. The series can be described thus: LPS-induced mouse model of sepsis. In kind it is in vivo. How it is done: A study was conducted to assess in vivo efficacy of test articles 1 (maltotriose sulfate; TA1), 2 (cellobiose sulfate; TA2), and 3 (heparin; TA3) in a lipopolysaccharide (LPS)-induced mouse model of sepsis. Endotoxemia was induced by intraperitoneal (i.p.) injection with LPS on day 1. Test articles were co-administered i.p. on day 1, and then dosed daily i.p. for an additional 2 days.

The test system of the next series is radiolabelled histones. The series can be described thus: Blockade of radiolabelled histone accumulation in rabbit lungs (gamma scintigraphy). In kind it is in vivo. The note with it: 15 mg/kg intravenously 15 minutes before radiolabel.
The test system of series [3] is calf thymus histones. The series can be described thus: Inhibition of histone cytotoxicity for HUVEC (flow cytometry, Calcein-AM/PI). The note with it: inhibitor 1.6-100 μg/ml; histones 200 μg/ml. In kind it is cell-based. The method, then: as §1, with “Thus, at 100 μg/ml histones killed 15-20% of HUVEC but had no effect on HMEC viability, whereas at 800 μg/ml histones killed >85% of HUVEC and ˜55% of HMEC (FIG. 1). In subsequent inhibition experiments calf thymus histones were used at 200 μg/ml for HUVEC and 400 μg/ml for HMEC, these concentrations resulting in ˜50% killing of both populations of endothelial cells.” left out

[4] abbreviates: 15 mg/kg i.p. daily x3, LPS 50 mg/kg.
Setting [5] is: 15 mg/kg i.p. daily x3, with LPS.
The mark [6] stands for this setting: 100 mg/kg i.p. daily x3, with LPS.

In the case of Heparin [reference compound], the “inhibitory activity on histone toxicity (in words)” value in the series with calf thymus histones [1] was “active”. For the same compound, the “survival (Kaplan-Meier)” value in series [2] (1.1 mg/kg i.p. daily x3, LPS 50 mg/kg) is listed as “no apparent change in the survival plot compared to the control”. For the same compound, the tolerability result in series [2] (1.1 mg/kg i.p. daily x3, with LPS) is listed as “well tolerated”.
As for sodium maltohexaose sulfate, the “accumulation of radiolabelled histones in the lung” value (“accumulation” below) in the series with radiolabelled histones was “blocked”.
In the case of sodium maltotetraose sulfate, in the series on radiolabelled histones, the “accumulation” value is on record as “blocked”.
In the case of Propanyl bis-gluconamide SO4, in the series on calf thymus histones [1], the “inhibitory activity on histone toxicity (in words)” value is given as “some inhibitory activity” and the “% histone killing ± SEM” value was 27.8 ± 1.5%.
With Carboxylated β-cyclodextrin, in the series on calf thymus histones [1], the “inhibitory activity on histone toxicity (in words)” value was “not” and the “% histone killing ± SEM” value is given as 105.8 ± 19.9%.
As to “β-cyclodextrin sulfate [β-cyclodextrin SO4]”, in the series on calf thymus histones [3], the “inhibitory activity on histone cytotoxicity for HUVEC (in words)” value was “almost as active as the linear maltotriose sulfate and maltopentaose sulfate”. In addition, in the series with calf thymus histones [1], the “inhibitory activity on histone toxicity (in words)” value was “active”.
As for “low molecular weight heparin [reference compound]”, in the series with calf thymus histones [1], the “inhibitory activity on histone toxicity (in words)” value is recorded as “active”.
For the compound maltotriose sulfate [Maltotriose SO4], in the series with calf thymus histones [1], the “inhibitory activity on histone toxicity (in words)” value is recorded as “more active than sulfated isomaltotriose”. Also, the “inhibition of cytotoxic effects of histones for HMEC” value in the series on calf thymus histones [1] (maltotriose sulfate 25 μg/ml) is on record as “totally”; in the series with calf thymus histones [1] (maltotriose sulfate 100 μg/ml) it was “partially”. Further, the “survival (Kaplan-Meier)” value in series [2] (setting [4]) is given as “extended survival”. The tolerability result is “better tolerated” in series [2] (setting [5]) and “appeared to produce some toxicity (cluster of deaths) after the third dose” in series [2] (setting [6]).
Turning to cellobiose sulfate [Cellobiose SO4], in the series on calf thymus histones [1], the “inhibitory activity on histone toxicity (in words)” value is “potent inhibitor”. In the series on radiolabelled histones, the “accumulation” value is “blocked”. For the same compound, the “survival (Kaplan-Meier)” value in series [2] (setting [4]) is recorded as “extended survival”; in series [2] (100 mg/kg i.p. daily x3, LPS 50 mg/kg) it was “extended survival”. The tolerability entry in series [2] (setting [5]) and in series [2] (setting [6]) was “well tolerated” each time.
Consider `O=S(=O)(O)OC[C@H]1O[C@@](COS(=O)(=O)O)(O[C@H]2O[C@H](COS(=O)(=O)O)[C@@H](OS(=O)(=O)O)[C@H](OS(=O)(=O)O)[C@H]2OS(=O)(=O)O)[C@@H](OS(=O)(=O)O)[C@@H]1OS(=O)(=O)O` [Sucrose octasulfate, reference compound], for which, in the series with calf thymus histones [1], the “inhibitory activity on histone toxicity (in words)” value is listed as “weaker inhibitors” and the “% histone killing ± SEM” value is reported as 43.5 ± 4.0%.
Regarding panose sulfate [Panose SO4], in the series with calf thymus histones [1], the “inhibitory activity on histone toxicity (in words)” value is listed as “more active than sulfated isomaltotriose”.
Consider raffinose sulfate [Raffinose SO4], for which the “inhibitory activity on histone toxicity (in words)” value in the series with calf thymus histones [1] is “more active than sulfated isomaltotriose”.
Take “Isomaltotriose sulfate [Isomaltotriose SO4]”: in the series with calf thymus histones [1], the “% histone killing ± SEM” value was 49.5 ± 5.4%.
maltose sulfate [Maltose SO4]: the “inhibitory activity on histone cytotoxicity for HUVEC (in words)” value in the series on calf thymus histones [3] is “weak inhibitor”. Moreover, in the series with calf thymus histones [1], the “inhibitory activity on histone toxicity (in words)” value is on record as “weaker inhibitors” and the “% histone killing ± SEM” value is 77.1 ± 4.7%.

Source of the values: US9226939B2, “Histone inhibition” (THE AUSTRALIAN NATIONAL UNIVERSITY, priority 2010, dated 2016).
